Results on one compound are retold here after publication doi:10.1101/2021.12.02.470934v1 (biorxiv, 2021).

This assay addresses FGFR1 kinase (FGFR1 kinase enzyme system, Promega V9321) (Homo sapiens, UniProt P11362). Put plainly: ADP-Glo luminescence kinase assay. The format is biochemical.

Sequence of FGFR1 kinase (FGFR1 kinase enzyme system, Promega V9321) (P11362 398-822 limits assumed): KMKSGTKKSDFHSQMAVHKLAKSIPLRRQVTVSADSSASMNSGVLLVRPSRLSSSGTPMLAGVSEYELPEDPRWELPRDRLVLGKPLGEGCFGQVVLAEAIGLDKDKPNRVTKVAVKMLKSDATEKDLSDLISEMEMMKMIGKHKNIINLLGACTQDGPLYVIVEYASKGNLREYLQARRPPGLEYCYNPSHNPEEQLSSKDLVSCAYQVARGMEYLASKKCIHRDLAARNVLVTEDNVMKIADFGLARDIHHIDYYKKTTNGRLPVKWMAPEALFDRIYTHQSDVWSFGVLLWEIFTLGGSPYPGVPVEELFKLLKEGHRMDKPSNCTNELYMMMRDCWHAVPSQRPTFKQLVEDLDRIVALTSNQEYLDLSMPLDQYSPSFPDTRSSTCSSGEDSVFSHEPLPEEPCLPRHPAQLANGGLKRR

Compound `CCN(CC)CCCC(C)Nc1c2ccc(Cl)cc2nc2ccc(OC)cc12` (stereo not shown) [Quinacrine] registered an IC50 of 1050 nM.
